Data set [1] can be described thus: Time course of conversion to indirubin in FaSSIF at 37° C.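 For all read-outs here: test compound, about 1-3 mg in 5 mL FaSSIF, sampled and analysed by UPLC-MS with PDA UV (210-400 nm), QDa mass and evaporative light scattering detection.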 The class given is physicochemical. Conditions: for Conversion to indirubin: over a 24 hour period.
A short description of data set [2]: Time course of conversion to indirubin in FaSSGF at 37° C.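 For all read-outs here: compound incubated in fasted state simulated gastric fluid, species in samples quantified by UPLC-MS with UV (210–400 nm) and ELS detection.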 It counts as physicochemical. Conditions: FaSSGF (Example 4; table title prints FaSSIF) 37° C.; for Conversion to indirubin: over a 24 hour period.

Each structure is given as a SMILES string.

With `CC(=O)N1CCN(CN2C(=O)/C(=C3\Nc4ccccc4C3=O)c3ccccc32)CC1` [drawing 258], the indirubin in data set [1] (FaSSIF 37° C. 24 h) worked out at 37%; in data set [1] (FaSSIF 37° C., 15 min), 8%; in data set [1] (FaSSIF 37° C., 30 min) it was 12%; in data set [1] (FaSSIF 37° C., 1 h), 12%; in data set [1] (FaSSIF 37° C., 2 h) it was 21%. The indirubin methylene alcohol in data set [1] (FaSSIF 37° C. 24 h) came to 14%; in data set [1] (FaSSIF 37° C., 15 min) it was 12%; in data set [1] (FaSSIF 37° C., 30 min) it was 14%; in data set [1] (FaSSIF 37° C., 1 h), 12%; in data set [1] (FaSSIF 37° C., 2 h), 10%. For the same molecule, the “starting material (prodrug compound)” value in data set [1] (FaSSIF 37° C. 24 h) was determined as 10%; in data set [1] (FaSSIF 37° C., 15 min), 31%; in data set [1] (FaSSIF 37° C., 30 min), 37%; in data set [1] (FaSSIF 37° C., 1 h), 30%; in data set [1] (FaSSIF 37° C., 2 h), 29%. Further, the Conversion to indirubin in data set [1] (FaSSIF 37° C.) is on record as 40-60%.
As for `CN(C)CCN(C)CN1C(=O)/C(=C2\Nc3ccccc3C2=O)c2ccccc21` [drawing 253], the indirubin in data set [1] (FaSSIF 37° C. 24 h) is recorded as 87%; in data set [1] (FaSSIF 37° C., 15 min) it was 90%; in data set [1] (FaSSIF 37° C., 30 min) it was 90%; in data set [1] (FaSSIF 37° C., 1 h), 89%; in data set [1] (FaSSIF 37° C., 2 h) it was 85%. In addition, the indirubin methylene alcohol is 7% in data set [1] (FaSSIF 37° C. 24 h); 7% in data set [1] (FaSSIF 37° C., 15 min); 7% in data set [1] (FaSSIF 37° C., 30 min); 6% in data set [1] (FaSSIF 37° C., 1 h); 6% in data set [1] (FaSSIF 37° C., 2 h). Further, the “starting material (prodrug compound)” value is 0% in data set [1] (FaSSIF 37° C. 24 h); 0% in data set [1] (FaSSIF 37° C., 15 min); 0% in data set [1] (FaSSIF 37° C., 30 min); 0% in data set [1] (FaSSIF 37° C., 1 h); 0% in data set [1] (FaSSIF 37° C., 2 h). For the same molecule, the Conversion to indirubin in data set [1] (FaSSIF 37° C.) is reported as 80-100%.
For `O=C1/C(=C2/C(=O)N(CO)c3ccccc32)Nc2ccccc21` [drawing 259], the indirubin in data set [1] (FaSSIF 37° C. 24 h) is 17%; in data set [1] (FaSSIF 37° C., 15 min) it was 12%; in data set [1] (FaSSIF 37° C., 30 min) it was 15%; in data set [1] (FaSSIF 37° C., 1 h), 14%; in data set [1] (FaSSIF 37° C., 2 h) it was 17%. Also, the “starting material (prodrug compound)” value is given as 73% in data set [1] (FaSSIF 37° C. 24 h); 81% in data set [1] (FaSSIF 37° C., 15 min); 82% in data set [1] (FaSSIF 37° C., 30 min); 80% in data set [1] (FaSSIF 37° C., 1 h); 79% in data set [1] (FaSSIF 37° C., 2 h). In data set [1] (FaSSIF 37° C.), the Conversion to indirubin is listed as 20-40%.
Take `O=C1/C(=C2/C(=O)N(COS(=O)(=O)O)c3ccccc32)Nc2ccccc21` [drawing 262]: the indirubin turned out to be 12% in data set [1] (FaSSIF 37° C. 24 h); 7% in data set [1] (FaSSIF 37° C., 15 min); 14% in data set [1] (FaSSIF 37° C., 30 min); 7% in data set [1] (FaSSIF 37° C., 1 h); 7% in data set [1] (FaSSIF 37° C., 2 h). Further, the indirubin methylene alcohol in data set [1] (FaSSIF 37° C. 24 h) turned out to be 83%; in data set [1] (FaSSIF 37° C., 15 min), 79%; in data set [1] (FaSSIF 37° C., 30 min), 73%; in data set [1] (FaSSIF 37° C., 1 h), 81%; in data set [1] (FaSSIF 37° C., 2 h), 83%. The “starting material (prodrug compound)” value in data set [1] (FaSSIF 37° C. 24 h) came out at 0%; in data set [1] (FaSSIF 37° C., 15 min) it was 0%; in data set [1] (FaSSIF 37° C., 30 min), 0%; in data set [1] (FaSSIF 37° C., 1 h), 0%; in data set [1] (FaSSIF 37° C., 2 h), 0%. The Conversion to indirubin in data set [1] (FaSSIF 37° C.) is 0-20%.
Turning to `CN(C)C1CCN(CN2C(=O)/C(=C3\Nc4ccccc4C3=O)c3ccccc32)CC1` [drawing 256], the indirubin in data set [1] (FaSSIF 37° C. 24 h) amounted to 72%; in data set [1] (FaSSIF 37° C., 15 min), 61%; in data set [1] (FaSSIF 37° C., 30 min), 62%; in data set [1] (FaSSIF 37° C., 1 h), 58%; in data set [1] (FaSSIF 37° C., 2 h), 70%. For the same molecule, the indirubin methylene alcohol in data set [1] (FaSSIF 37° C. 24 h) came to 6%; in data set [1] (FaSSIF 37° C., 15 min), 5%; in data set [1] (FaSSIF 37° C., 30 min) it was 5%; in data set [1] (FaSSIF 37° C., 1 h), 5%; in data set [1] (FaSSIF 37° C., 2 h), 7%. Besides, the “starting material (prodrug compound)” value stood at 0% in data set [1] (FaSSIF 37° C. 24 h); 30% in data set [1] (FaSSIF 37° C., 15 min); 31% in data set [1] (FaSSIF 37° C., 30 min); 32% in data set [1] (FaSSIF 37° C., 1 h); 22% in data set [1] (FaSSIF 37° C., 2 h). Further, in data set [1] (FaSSIF 37° C.), the Conversion to indirubin is on record as 60-80%.
Turning to `CN(C)CCN(CCN(C)C)CN1C(=O)/C(=C2\Nc3ccccc3C2=O)c2ccccc21` [drawing 257], the indirubin in data set [1] (FaSSIF 37° C. 24 h) is listed as 74%; in data set [1] (FaSSIF 37° C., 15 min) it was 78%; in data set [1] (FaSSIF 37° C., 30 min) it was 78%; in data set [1] (FaSSIF 37° C., 1 h), 78%; in data set [1] (FaSSIF 37° C., 2 h) it was 83%. Also, the indirubin methylene alcohol is 4% in data set [1] (FaSSIF 37° C. 24 h); 13% in data set [1] (FaSSIF 37° C., 15 min); 13% in data set [1] (FaSSIF 37° C., 30 min); 13% in data set [1] (FaSSIF 37° C., 1 h); 10% in data set [1] (FaSSIF 37° C., 2 h). For the same molecule, the “starting material (prodrug compound)” value amounted to 0% in data set [1] (FaSSIF 37° C. 24 h); 6% in data set [1] (FaSSIF 37° C., 15 min); 6% in data set [1] (FaSSIF 37° C., 30 min); 6% in data set [1] (FaSSIF 37° C., 1 h); 4% in data set [1] (FaSSIF 37° C., 2 h). Also, the Conversion to indirubin in data set [1] (FaSSIF 37° C.) is 60-80%.
In the case of `O=C1/C(=C2/C(=O)N(CN3CCCC3)c3ccccc32)Nc2ccccc21` [drawing 255], the indirubin in data set [1] (FaSSIF 37° C. 24 h) was 100%; in data set [1] (FaSSIF 37° C., 15 min), 100%; in data set [1] (FaSSIF 37° C., 30 min), 100%; in data set [1] (FaSSIF 37° C., 1 h), 100%; in data set [1] (FaSSIF 37° C., 2 h), 100%. In addition, the indirubin methylene alcohol turned out to be 0% in data set [1] (FaSSIF 37° C. 24 h); 0% in data set [1] (FaSSIF 37° C., 15 min); 0% in data set [1] (FaSSIF 37° C., 30 min); 0% in data set [1] (FaSSIF 37° C., 1 h); 0% in data set [1] (FaSSIF 37° C., 2 h). Moreover, the “starting material (prodrug compound)” value is on record as 0% in data set [1] (FaSSIF 37° C. 24 h); 0% in data set [1] (FaSSIF 37° C., 15 min); 0% in data set [1] (FaSSIF 37° C., 30 min); 0% in data set [1] (FaSSIF 37° C., 1 h); 0% in data set [1] (FaSSIF 37° C., 2 h). Moreover, the Conversion to indirubin in data set [1] (FaSSIF 37° C.) was 80-100%.
`CN1CCN(CN2C(=O)/C(=C3\Nc4ccccc4C3=O)c3ccccc32)CC1` [drawing 265]: the indirubin in data set [1] (FaSSIF 37° C. 24 h) was 30%; in data set [1] (FaSSIF 37° C., 15 min) it was 8%; in data set [1] (FaSSIF 37° C., 30 min), 12%; in data set [1] (FaSSIF 37° C., 1 h), 11%; in data set [1] (FaSSIF 37° C., 2 h), 18%. For the same molecule, the indirubin methylene alcohol in data set [1] (FaSSIF 37° C. 24 h) was found to be 0%; in data set [1] (FaSSIF 37° C., 15 min), 0%; in data set [1] (FaSSIF 37° C., 30 min), 0%; in data set [1] (FaSSIF 37° C., 1 h), 0%; in data set [1] (FaSSIF 37° C., 2 h), 0%. Further, the “starting material (prodrug compound)” value in data set [1] (FaSSIF 37° C. 24 h) is reported as 53%; in data set [1] (FaSSIF 37° C., 15 min), 80%; in data set [1] (FaSSIF 37° C., 30 min) it was 74%; in data set [1] (FaSSIF 37° C., 1 h), 77%; in data set [1] (FaSSIF 37° C., 2 h), 68%. In addition, the Conversion to indirubin in data set [1] (FaSSIF 37° C.) is given as 0-20%.
Turning to `O=C1/C(=C2/C(=O)N(CN3CCCCC3)c3ccccc32)Nc2ccccc21` [drawing 254], in data set [1] (FaSSIF 37° C.), the Conversion to indirubin is recorded as 80-100%.
On to `CC(=O)N1CCN(CN2C(=O)/C(=C3\Nc4ccccc4C3=O)c3ccccc32)CC1` [drawing 281], for which the indirubin in data set [2] (15 min) was found to be 4%; in data set [2] (30 min), 3%; in data set [2] (1 h), 4%; in data set [2] (2 h) it was 3%; in data set [2] (24 h) it was 0%. In addition, the indirubin methylene alcohol is 4% in data set [2] (15 min); 0% in data set [2] (30 min); 4% in data set [2] (1 h); 0% in data set [2] (2 h); 0% in data set [2] (24 h). Besides, the “starting material (prodrug compound)” value in data set [2] (15 min) amounted to 92%; in data set [2] (30 min), 97%; in data set [2] (1 h) it was 87%; in data set [2] (2 h) it was 97%; in data set [2] (24 h) it was 100%. For the same molecule, in data set [2], the Conversion to indirubin is listed as 0-20%.
Consider `O=C1/C(=C2/C(=O)N(CO)c3ccccc32)Nc2ccccc21` [drawing 274], for which the indirubin in data set [2] (15 min) is recorded as 8%; in data set [2] (30 min), 18%; in data set [2] (1 h) it was 12%; in data set [2] (2 h), 18%; in data set [2] (24 h), 22%. Also, the indirubin methylene alcohol in data set [2] (15 min) turned out to be 92%; in data set [2] (30 min), 82%; in data set [2] (1 h), 88%; in data set [2] (2 h), 82%; in data set [2] (24 h), 78%. The “starting material (prodrug compound)” value in data set [2] (15 min), in data set [2] (30 min), in data set [2] (1 h), in data set [2] (2 h) and in data set [2] (24 h) was 0% each time. Also, the Conversion to indirubin in data set [2] is given as 20-40%.
As to `CN(C)CCN(CCN(C)C)CN1C(=O)/C(=C2\Nc3ccccc3C2=O)c2ccccc21` [drawing 271], the indirubin in data set [2] (15 min) turned out to be 90%; in data set [2] (30 min), 94%; in data set [2] (1 h) it was 87%; in data set [2] (2 h), 91%; in data set [2] (24 h) it was 90%. Also, the indirubin methylene alcohol in data set [2] (15 min) came to 5%; in data set [2] (30 min) it was 4%; in data set [2] (1 h) it was 9%; in data set [2] (2 h), 8%; in data set [2] (24 h) it was 9%. Besides, the “starting material (prodrug compound)” value in data set [2] (15 min) is recorded as 4%; in data set [2] (30 min), 2%; in data set [2] (1 h), 3%; in data set [2] (2 h) it was 2%; in data set [2] (24 h) it was 1%. In data set [2], the Conversion to indirubin is 80-100%.
